Read-outs that look alike come from different tables or passages of the source.
Biological target: Human Factor D (purified from human serum) (Homo sapiens (Human), UniProt P00746)
Experiment: Human Factor D Assay
Format: biochemical
Conditions: Human Factor D 80 nM, substrate Z-L-Lys-SBzl
Procedure: The assay of Example 2 was used to determine the IC50's of the compounds. Other standard Factor D inhibition assays are also available.
Human Factor D (purified from human serum, Complement Technology, Inc.) at 80 nM final concentration is incubated with test compound at various concentrations for 5 min at room temperature in 50 mM Tris, 1M NaCl, pH 7.5. A synthetic substrate Z-L-Lys-SBzl and DTNB (Ellman's reagent) are added to final concentrations of 100 μM each. Absorbance at 405 nm (A405) is recorded at 30 second intervals for 30 minutes using a microplate spectrophotometer. IC50 values are calculated by nonlinear regression of Complement Factor D reaction rates as a function of test compound concentration.

[1] = Table 6, read-out: IC50 (Stars)

Sequence of Human Factor D (purified from human serum) (P00746 26-253): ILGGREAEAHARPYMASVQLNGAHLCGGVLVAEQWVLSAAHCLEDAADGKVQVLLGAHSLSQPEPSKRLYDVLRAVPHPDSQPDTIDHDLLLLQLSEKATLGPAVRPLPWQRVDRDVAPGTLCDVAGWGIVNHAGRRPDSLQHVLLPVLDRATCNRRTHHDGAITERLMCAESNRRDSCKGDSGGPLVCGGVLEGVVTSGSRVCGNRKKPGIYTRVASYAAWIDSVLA

Row | IC50 (Table 6, read-out: IC50) [nM] | IC50 [1] [nM] | Molecule | further results
1 | < 1000 |  | CC(=O)c1nn2c3c(cc(-c4cnc(C)nc4)cc13)CCCCCCC(=O)NC[C@@]13C[C@@H](C(=O)Nc4cc(Br)ccc4C4CC4)N(C(=O)C2)[C@@H]1C3 [Compound T-212, (41R,43S,45R)-13-acetyl-N-(6-bromo-3-cyclopropylpyridin-2-yl)-15-(2-methylpyrimidin-5-yl)-3,7-dioxo-11H-42,6-diaza-1(1,7)-indazola-4(2,5)-bicyclo[3.1.0]hexanacyclotridecaphane-43-carboxamide] | 
2 | < 1000 |  | CC(=O)c1nn2c3c(cc(-c4cnc(C)nc4)cc13)CCCCCCC(=O)NC[C@@]13C[C@@H](C(=O)Nc4nc(Br)ccc4F)N(C(=O)C2)[C@@H]1C3 [Compound T-230, (41R,43S,45R)-13-acetyl-N-(6-bromo-3-fluoropyridin-2-yl)-15-(2-methylpyrimidin-5-yl)-3,7-dioxo-11H-42,6-diaza-1(1,7)-indazola-4(2,5)-bicyclo[3.1.0]hexanacyclotridecaphane-43-carboxamide] | 
3 |  | < 1000 | CC(=O)c1nn2c3c(nc(-c4cnc(C)nc4)cc13)CCCCCCC(=O)NC[C@@]13C[C@@H](C(=O)Nc4nc(Br)ccc4C)N(C(=O)C2)[C@@H]1C3 [Compound T-166, (41R,43S,45R)-13-acetyl-N-(6-bromo-3-methylpyridin-2-yl)-15-(2-methylpyrimidin-5-yl)-3,7-dioxo-11H-42,6-diaza-1(1,7)-pyrazolo[3,4-c]pyridina-4(2,5)-bicyclo[3.1.0]hexanacyclotridecaphane-43-carboxamide] | 
4 | < 1000 |  | CC(=O)c1nn2c3c(cc(-c4cnc(C)cn4)cc13)CC=CCCCC(=O)NC[C@@]13C[C@@H](C(=O)Nc4nc(C(F)(F)F)ccc4C)N(C(=O)C2)[C@@H]1C3 [Compound T-219, (41R,43S,45R)-13-acetyl-N-(3-methyl-6-(trifluoromethyl)pyridin-2-yl)-15-(5-methylpyrazin-2-yl)-3,7-dioxo-11H-42,6-diaza-1(1,7)-indazola-4(2,5)-bicyclo[3.1.0]hexanacyclotridecaphan-11-ene-43-carboxamide] | 
5 |  | < 1000 | CC(=O)c1nn2c3c(cc(-c4cnc(C)nc4)cc13)CCCCCC(C)(C)C(=O)N(C)C[C@@]13C[C@@H](C(=O)Nc4nc(C(F)(F)F)ccc4C)N(C(=O)C2)[C@@H]1C3 [Compound T-186, (41R,43S,45R)-13-acetyl-6,8,8-trimethyl-N-(3-methyl-6-(trifluoromethyl)pyridin-2-yl)-15-(2-methylpyrimidin-5-yl)-3,7-dioxo-11H-42,6-diaza-1(1,7)-indazola-4(2,5)-bicyclo[3.1.0]hexanacyclotridecaphane-43-carboxamide] | 

The remaining lines, values behind:

Row | Molecule | IC50 (Table 6, read-out: IC50) [nM] | IC50 [1] [nM] | further results
6 | CC(=O)c1cn2c3c(cc(-c4cnc(C)nc4)cc13)CCCCCCC(=O)NC[C@@]13C[C@@H](C(=O)Nc4nc(C(F)(F)F)ccc4C)N(C(=O)C2)[C@@H]1C3 [Compound T-159, (41R,43S,45R)-13-acetyl-N-(3-methyl-6-(trifluoromethyl)pyridin-2-yl)-15-(2-methylpyrimidin-5-yl)-3,7-dioxo-11H-42,6-diaza-1(1,7)-indola-4(2,5)-bicyclo[3.1.0]hexanacyclotridecaphane-43-carboxamide] |  | < 1000 | 
7 | CC(=O)c1nn2c3c(nc(-c4cnc(C)nc4)cc13)CCCCCC(=O)NC[C@@]13C[C@@H](C(=O)Nc4nc(C(F)(F)F)ccc4C)N(C(=O)C2)[C@@H]1C3 [Compound T-124, (41R,43S,45R)-13-acetyl-N-(3-methyl-6-(trifluoromethyl)pyridin-2-yl)-15-(2-methylpyrimidin-5-yl)-3,7-dioxo-11H-42,6-diaza-1(1,7)-pyrazolo[3,4-c]pyridina-4(2,5)-bicyclo[3.1.0]hexanacyclododecaphane-43-carboxamide] |  | < 1000 | 
8 | (41R,43S,45R)-42-(2-(3-acetyl-5-(2-methylpyrimidin-5-yl)-1H-indazol-1-yl)acetyl)-16-bromo-6-methyl-7-thia-42,6-diaza-1(2,3)-pyridina-4(3,5)-bicyclo[3.1.0]hexanacycloundecaphan-10-en-3-one 7,7-dioxide [Compound T-17] |  |  | IC50 (assay of Example 2, read-out: IC50 (Stars)): < 1000 nM
9 | Cc1ncc(-c2cc3c(C#N)nn4c3c(n2)CCCC=CCOC[C@@]23C[C@@H](C(=O)Nc5nc(C(F)(F)F)ccc5C)N(C(=O)C4)[C@@H]2C3)cn1 [Compound T-154, (41R,43S,45S)-13-cyano-N-(3-methyl-6-(trifluoromethyl)pyridin-2-yl)-15-(2-methylpyrimidin-5-yl)-3-oxo-11H-6-oxa-42-aza-1(1,7)-pyrazolo[3,4-c]pyridina-4(2,5)-bicyclo[3.1.0]hexanacyclododecaphan-8-ene-43-carboxamide] |  | < 1000 | 
